Entries after “also recorded” stand apart in the source; their conditions may differ. Read-outs that look alike come from different tables or passages of the source.
Key:
[1] = test system: mice of both sexes; conditions: cited from earlier work
[2] = test system: male or female rats; conditions: cited from earlier work
[3] = test system: rats; conditions: rat, in vivo; cited from earlier work
[4] = test system: female Sprague Dawley rats; experiment: Operant alcohol (10%) self-administration, FR2 schedule, 60-min sessions; type: in vivo, rat; conditions: for Active lever presses, post-hoc comparison with vehicle / Estimated total alcohol intake, post-hoc comparison with vehicle / Number of head entries, comparison with vehicle / Number of reinforcers earned, post-hoc comparison with vehicle: 0.3, 1.0, 3.0 mg/kg IP vs vehicle, decrease, Tukey's test
From the text: (§1) Animals. A total of 10 female Sprague Dawley rats (Charles River, Wilmington, MA) were used for the alcohol self-administration studies. […] These same rats were used in the cFos immunohistochemistry study. Rats were initially housed 3-5 to a cage in polypropylene cages housed in circular towers (Animal Care Systems, Inc, Centennial, CO) located within a temperature- and humidity-controlled vivarium that was maintained on a 12:12 light/dark cycle (lights on at 6 AM). Rats weighed about 250-350 gm at the start of the experiment and were at least 100 days old. Food and water were available ad libitum throughout the study. To facilitate alcohol self-administration rats were exposed to alcohol in vapor chambers (La Jolla Alcohol Research, La Jolla, CA) for 6-weeks prior to operant training using a chronic intermittent alcohol exposure (i.e., alcohol vapors were on for 14-h and off for 10-h, 5 days per week).
Drugs. Alcohol (ethyl alcohol, 190 Proof, USP grade, Koptec, King of Prussia, PA) was diluted to 10% (with RO water, w/v) and made available for consumption via standard operant chambers (described below). MG (Cayman Chemical, Ann Arbor, MI) was prepared in 20% Tween 80 (Sigma Aldrich, St. Louis, MO) in 80% sterile saline (0.9% NaCl). […] Each dose of test drug was administered via intraperitoneal (IP) injection.
Operant self-administration training and testing. Training sessions (60 min) began with the illumination of the house light and, initially, two non-contingent dipper presentations (primes) for 10 sec. The dipper access light was illuminated for the entire length of the dipper presentation time. […] When the rat pressed the active lever, the house light would turn off, dipper would protrude, and the access area light and the triple cue light above both of the levers went off. […] Stable response levels under the FR2 schedule (≤20% variability over 2 consecutive days) under 3 second dipper presentation time were required for the animal to move into the testing phase. Test sessions (60 min) were conducted once a rat met stable lever pressing criteria. Each dose of test drug and vehicle was administered (IP) 30 minutes prior to the test session in a randomized order across rats with at least 4-7 days intervening between dose administrations.
Responses obtained from the test sessions included two measures of appetitive responding (numbers of active lever presses and head entries) and two measures of consummatory responding (numbers of reinforcers earned and estimated amount of alcohol consumed in g/kg). Estimates of the amount of alcohol delivered were derived by multiplying the number of reinforcers earned by the amount of alcohol (g) per delivery (0.1 mL) of the 10% solution and divided by body weight.
Statistical Analysis. The self-administration data were analyzed with ANOVAs to compare the two measures of appetitive responding (numbers of active lever presses and head entries) and the two measures of consummatory responding (numbers of reinforcers earned and estimated total alcohol intake in g/kg).
(§2) Significant main effects were followed by Tukey's multiple comparisons test. Comparisons with p-values less than 0.05 were considered significant and those less than 0.10 were considered a trend towards significance.

[5] = test system: female Sprague Dawley rats; experiment: Open field test - locomotor activity; type: in vivo, rat; conditions: N=4/group; for Distance traveled over 5-min time blocks: 3 mg/kg IP 30 min before 30-min test, vs control; for Total distance traveled over entire 30-min session: 3 mg/kg IP 30 min before test
From the text: as §1
Open Field Test-Locomotor Activity. […] Drugs were administered 30 minutes before rats were placed into the open field chambers and distance traveled (cm) was tabulated in 5-min blocks across the 30-minute test.
Distance traveled over time was analyzed using a 4×6 repeated measures ANOVA with time (six 5-min blocks) as the repeating measure. Another ANOVA was conducted that included all three Drug conditions (MG, NTX, and MG+NTX).
as §2

[6] = test system: cFos; experiment: Immunohistochemistry: cFos activation in brain areas; type: in vivo, rat; conditions: 3 mg/kg IP, 90 min after open field test, vs control
From the text: as §1

[7] = test system: female Sprague Dawley rats; conditions: 10 mg/kg (highest dose), progressive ratio schedule; cited from earlier work
[8] = test system: cFos; conditions: 2 mg/kg, i.p.; cited from earlier work
[9] = test system: male Sprague Dawley rats; conditions: cited from earlier work
[10] = test system: male rats; conditions: male Sprague Dawley rats, 10-30 mg/kg ip vs 1, 5, 10 mg/kg i.p.; cited from earlier work
[11] = test system: mice; conditions: i.p., cited from earlier work
[12] = NTX 1 mg/kg; cited from earlier work
[13] = molecular target: T1, delta opioid receptors (Homo sapiens, UniProt P41143); conditions: cited from earlier work
T1 sequence (P41143 whole entry): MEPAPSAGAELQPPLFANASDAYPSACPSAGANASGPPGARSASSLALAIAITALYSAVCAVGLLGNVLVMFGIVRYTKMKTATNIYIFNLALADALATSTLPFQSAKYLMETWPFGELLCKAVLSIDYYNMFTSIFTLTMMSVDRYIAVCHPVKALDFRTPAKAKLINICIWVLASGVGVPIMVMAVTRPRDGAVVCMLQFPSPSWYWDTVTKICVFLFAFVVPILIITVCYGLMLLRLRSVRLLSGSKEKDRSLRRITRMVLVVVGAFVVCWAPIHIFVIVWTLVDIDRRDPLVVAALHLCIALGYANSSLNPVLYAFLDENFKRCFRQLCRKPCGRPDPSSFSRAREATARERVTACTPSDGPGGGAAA

[14] = molecular target: T1, delta opioid receptors; conditions: cited from earlier work; remark: listed apart in the source
[15] = molecular target: T2, delta opioid receptors (Mus musculus, UniProt P32300); conditions: NG108-15 cells; effect blocked by naloxone; cited from earlier work
T2 construct: endogenous in cells; host or cells: NG108-15
T2 sequence (P32300 whole entry): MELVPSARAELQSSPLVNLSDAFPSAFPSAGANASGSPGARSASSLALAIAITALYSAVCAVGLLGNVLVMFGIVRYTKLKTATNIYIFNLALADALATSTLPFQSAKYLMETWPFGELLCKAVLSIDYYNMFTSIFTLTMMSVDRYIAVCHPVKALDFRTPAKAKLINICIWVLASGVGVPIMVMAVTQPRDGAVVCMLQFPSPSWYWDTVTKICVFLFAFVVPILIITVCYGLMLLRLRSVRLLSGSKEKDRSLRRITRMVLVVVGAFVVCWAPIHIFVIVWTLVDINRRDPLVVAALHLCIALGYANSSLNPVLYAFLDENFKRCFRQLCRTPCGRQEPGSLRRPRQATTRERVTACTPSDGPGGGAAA

[16] = 15-30 mg/kg; cited from earlier work
[17] = 15-30 mg/kg; cited from earlier work; remark: listed apart in the source
[18] = test system: rats; conditions: cited from earlier work

Which Alcohol consumption ([1]; dose not given) does the source give for CC[C@@H]1CN2CC[C@@]3(O)C(=Nc4cccc(OC)c43)[C@@H]2C[C@@H]1/C(=C\OC)C(=O)OC [7-HMG, 7-hydroxymitragynine, reference compound] here?
Its Alcohol consumption is “significantly reduced alcohol consumption as did 7-HMG”.

And the “Abuse liability in ICSS” value ([2]; rat, in vivo)?
The value was “abuse liability was not shown in ICSS”.

And the Self-administration by rats [3]?
Its Self-administration by rats is “readily self-administered by rats”.

Which “Active lever presses, post-hoc comparison with vehicle” value [4] does the source give for O=C1CC[C@@]2(O)[C@H]3Cc4ccc(O)c5c4[C@@]2(CCN3CC2CC2)[C@H]1O5 [NTX, naltrexone, reference compound] here?
The value was “significant differences in active lever presses between vehicle and 1.0 (P<0.05) and 3.0 mg/kg (P<0.05)”.

And the “Estimated total alcohol intake, post-hoc comparison with vehicle” value [4]?
The value was “significant differences between vehicle and 1.0 (P<0.05) and 3.0 mg/kg (P<0.05)”.

What about the “Number of head entries, comparison with vehicle” value [4] of the same molecule?
Its value is “trend towards a main effect for Dose”.

And the “Number of reinforcers earned, post-hoc comparison with vehicle” value [4]?
The value was “significant differences between vehicle compared to 1.0 (P<0.05) and 3.0 mg/kg (P<0.05)”.

What about the “All alcohol self-administration measures (lever presses, head entries, reinforcers, alcohol consumed)” value ([4]; 0.3-3.0 mg/kg IP) of the same molecule?
The value was “All measures were significantly decreased by naltrexone except for head entries that showed a trend towards significance”.

What about the “Distance traveled over 5-min time blocks” value [5] of the same molecule?
The value was “tend to increase locomotor activity”.

And the “Total distance traveled over entire 30-min session” value [5]?
Its value is “did not differ between groups”.

And the “Number of cFos positive neurons in dorsal striatum” value [6]?
Its value is “did not differ from the control group”.

What about the “Number of cFos positive neurons in nucleus accumbens (NAC)” value [6] of the same molecule?
Its value is “significant difference between control and NTX (P=0.002); also recorded: increased cFos levels to a similar degree to that of MG and NTX combined”.

What about the “Active lever presses, reinforcers earned, head entries” value [7] of the same molecule?
The value was “decreased active lever presses, reinforcers earned but not head entries”.

What about the cFos expression [8] of the same molecule?
The cFos expression was “increases cFos expression in several brain areas including the NAC”.

Which “Active lever presses, post-hoc comparison with vehicle” value [4] does the source give for CC[C@@H]1CN2CCc3c([nH]c4cccc(OC)c34)[C@@H]2C[C@@H]1/C(=C\OC)C(=O)OC [MG, mitragynine] here?
The value was “significant differences in active lever presses between vehicle and 1.0 (P<0.01) and 3.0 mg/kg (P<0.0001)”.

What about the “Estimated total alcohol intake, post-hoc comparison with vehicle” value [4] of the same molecule?
The value was “significant differences between vehicle and 1.0 (P<0.01) and 3.0 mg/kg (P<0.001)”.

And the “Number of head entries, comparison with vehicle” value [4]?
The value was “significant differences between vehicle and 1.0 (P<0.01) and 3.0 mg/kg (P<0.01)”.

What about the “Number of reinforcers earned, post-hoc comparison with vehicle” value [4] of the same molecule?
The value was “significant differences between vehicle compared to 1.0 (P<0.05) and 3.0 mg/kg (P<0.0001)”.

And the “All alcohol self-administration measures (lever presses, head entries, reinforcers, alcohol consumed)” value ([4]; 0.3-3.0 mg/kg IP)?
The value was “All measures were significantly decreased”.

And the “Alcohol self-administration overall, relative efficacy of drug conditions” value ([4]; 0.3-3.0 mg/kg IP, combination vs single drugs)?
The value was “more significant effects on all four measures of alcohol self-administration than NTX”.

What about the “Active lever presses, direct comparison between drug conditions” value ([4]; MG vs NTX vs MG+NTX at equal doses, 3x4 ANOVA, post-hoc) of the same molecule?
The value was “trend for a greater effect of MG on active lever presses at the 3 mg/kg dose”.

And the “Distance traveled over 5-min time blocks” value [5]?
Its value is “tend to increase locomotor activity”.

And the “Total distance traveled over entire 30-min session” value [5]?
The value was “did not differ between groups”.

And the “Number of cFos positive neurons in dorsal striatum” value [6]?
Its value is “did not differ from the control group”.

And the Alcohol consumption ([1]; 30 and 100 mg/kg, i.p.)?
The Alcohol consumption was “significantly reduced alcohol consumption”.

And the Heroin self-administration ([9]; 3.0 mg/kg)?
The Heroin self-administration was “decreased heroin self-administration”.

What about the “Responding when substituted for heroin” value ([9]; 0.03-3.0 mg/kg) of the same molecule?
Its value is “did not maintain responding above saline levels”.

What about the Locomotor activity [10] of the same molecule?
The Locomotor activity was “higher doses (10-30 mg/kg, ip) of MG but not lower doses (1, 5, 10 mg/kg, i.p.) increase locomotor activity”.

And the Spontaneous locomotor activity ([11]; 5-30 mg/kg)?
The Spontaneous locomotor activity was “no effect on spontaneous locomotor activity”.

What about the Activity ([11]; male mice, 5, 10, 15 mg/kg) of the same molecule?
The Activity was “significant decrease in activity”.

What about the “Decrease of schedule-controlled responding by MG in presence of NTX” value [12] of the same molecule?
Its value is “did not block MG's ability to decrease schedule-controlled responding”.

What about the Binding [13] of the same molecule?
Its Binding is “very low binding to delta opioid receptors”.

And the Activity at receptor [14]?
Its Activity at receptor is “has activity at delta opioid receptors”.

And the “Inhibition of forskolin-stimulated cAMP” value [15]?
Its value is “inhibits forskolin-stimulated CAMP in a concentration manner”.

What about the Place conditioning [16] of the same molecule?
Its Place conditioning is “induce place conditioning”.

And the “Substitution for morphine in drug discrimination tests” value [17]?
Its value is “partially substitute for morphine”.

What about the “Rewarding effect in ICSS” value ([2]; 3.2-56 mg/kg) of the same molecule?
The value was “did not find evidence that MG (3.2-56 mg/kg) was rewarding”.

And the “Self-administration when substituted for morphine” value ([18]; broad range of doses, rats trained to self-administer (i.v.) morphine)?
Its value is “did not support self-administration”.

What about the “i.v. morphine self-administration after prior exposure” value ([18]; prior exposure) of the same molecule?
The value was “decreases i.v. morphine self-administration”.

From patent US20260115173A1 (University of Houston System, priority 2022, published 2026)
